Series [1] relates to Pseudomonas aeruginosa. Briefly: In vivo antibacterial activity against Pseudomonas aeruginosa ATCC9027 infected in keratitis C57BL/6 mouse model assessed as log reduction in bacterial load at 0.3 % administered topically 4 times per day for 3 days. The following applies: time 3 day. The class given is functional.
Series [2] has as its system Escherichia coli. Briefly: Induction of drug resistance in Escherichia coli ATCC25922 assessed as fold increase in MIC at sub-inhibitory concentration incubated for 21 to 22 passages. The class given is functional.
The subject of series [3] is Staphylococcus aureus. Briefly: Disruption of preformed biofilm in Staphylococcus aureus ATCC29213 assessed as residual preformed biofilm at 6.25 ug/mL incubated for 24 hrs by crystal violet staining based analysis relative to control. The class given is functional. The following applies: dose 6.25 µg/ml.
Series [4] has as its system Staphylococcus aureus. Briefly: Antimicrobial activity against methicillin-resistant Staphylococcus aureus NCTC10442 assessed as bacterial growth inhibition incubated for 24 hrs by Muller Hinton broth based dilution assay. The class given is functional.
The test system of series [5] is Staphylococcus aureus. Briefly: Antibiofilm activity against Staphylococcus aureus ATCC29213 assessed as inhibition of biofilm formation at 0.39 ug/mL incubated for 24 hrs by crystal violet staining based analysis relative to control. The class given is functional.
In series [6] the test system is Staphylococcus aureus. Briefly: Antibiofilm activity against Staphylococcus aureus ATCC29213 assessed as inhibition of biofilm formation at 6.25 ug/mL incubated for 24 hrs by crystal violet staining based analysis relative to control. The class given is functional.
The subject of series [7] is Staphylococcus aureus. The series can be described thus: Antimicrobial activity against methicillin-resistant Staphylococcus aureus N315 assessed as bacterial growth inhibition incubated for 24 hrs by Muller Hinton broth based dilution assay. The class given is functional.
Series [8] concerns Staphylococcus aureus. Briefly: Disruption of preformed biofilm in Staphylococcus aureus ATCC29213 assessed as residual preformed biofilm at 0.78 ug/mL incubated for 24 hrs by crystal violet staining based analysis relative to control. The class given is functional. The following applies: dose 0.78 µg/ml.
Series [9] relates to Staphylococcus aureus. The series can be described thus: Disruption of preformed biofilm in Staphylococcus aureus ATCC29213 assessed as residual preformed biofilm at 12.5 ug/mL incubated for 24 hrs by crystal violet staining based analysis relative to control. The following applies: dose 12.5 µg/ml. The class given is functional.
For series [10], the system named is Staphylococcus aureus. The series can be described thus: Antibiofilm activity against Staphylococcus aureus ATCC29213 assessed as inhibition of biofilm formation at 0.78 ug/mL incubated for 24 hrs by crystal violet staining based analysis relative to control. The class given is functional.
The test system of series [11] is Staphylococcus aureus. Briefly: Disruption of preformed biofilm in Staphylococcus aureus ATCC29213 assessed as residual preformed biofilm at 0.39 ug/mL incubated for 24 hrs by crystal violet staining based analysis relative to control. The class given is functional. The following applies: dose 0.39 µg/ml.
The subject of series [12] is Staphylococcus aureus. Briefly: Antimicrobial activity against Staphylococcus aureus ATCC29213 assessed as bacterial growth inhibition incubated for 24 hrs by Muller Hinton broth based dilution assay. The class given is functional.
The subject of series [13] is Staphylococcus aureus. Briefly: Disruption of preformed biofilm in Staphylococcus aureus ATCC29213 assessed as residual preformed biofilm at 3.125 ug/mL incubated for 24 hrs by crystal violet staining based analysis relative to control. The class given is functional. The following applies: dose 3.125 µg/ml.
Series [14] has as its system Escherichia coli. The series can be described thus: Antimicrobial activity against Escherichia coli ATCC25922 assessed as bacterial growth inhibition incubated for 24 hrs by Muller Hinton broth based dilution assay. The class given is functional.
Series [15] deals with Staphylococcus aureus. Briefly: Induction of drug resistance in Staphylococcus aureus ATCC29213 assessed as fold increase in MIC at sub-inhibitory concentration incubated for 21 to 22 passages. The class given is functional.
Series [16] concerns Acinetobacter baumannii. Briefly: Antimicrobial activity against Acinetobacter baumannii R2889 assessed as bacterial growth inhibition incubated for 24 hrs by Muller Hinton broth based dilution assay. The class given is functional.
Series [17] concerns Candida albicans. Briefly: Antimicrobial activity against Candida albicans ATCC10231 assessed as fungal growth inhibition incubated for 48 hrs by Sabouraud Dextrose broth based dilution assay. The class given is functional.
Series [18] has as its system Candida albicans. The series can be described thus: Antimicrobial activity against Candida albicans CMCC98001 assessed as fungal growth inhibition incubated for 48 hrs by Sabouraud Dextrose broth based dilution assay. The class given is functional.
Series [19] relates to Klebsiella pneumoniae. The series can be described thus: Antimicrobial activity against Klebsiella pneumoniae ATCC14581 assessed as bacterial growth inhibition incubated for 24 hrs by Muller Hinton broth based dilution assay. The class given is functional.
In series [20] the test system is Klebsiella pneumoniae. Briefly: Antimicrobial activity against Klebsiella pneumoniae ATCC10031 assessed as bacterial growth inhibition incubated for 24 hrs by Muller Hinton broth based dilution assay. The class given is functional.
Series [21] relates to Acinetobacter baumannii. The series can be described thus: Antimicrobial activity against Acinetobacter baumannii ATCC17978 assessed as bacterial growth inhibition incubated for 24 hrs by Muller Hinton broth based dilution assay. The class given is functional.
A short description of series [22]: Hemolytic activity in rabbit RBC incubated for 1 hr by absorbance based microplate reader assay. The class given is toxicity, cell-based, Oryctolagus cuniculus, Erythrocyte. The following applies: rabbit red blood cells (erythrocytes).
The subject of series [23] is Pseudomonas aeruginosa. Briefly: Antimicrobial activity against Pseudomonas aeruginosa ATCC9027 assessed as bacterial growth inhibition incubated for 24 hrs by Muller Hinton broth based dilution assay. The class given is functional.
In another series the test system is Cell membrane. Briefly: Disruption of outer membrane integrity in Acinetobacter baumannii ATCC17978 at 25 ug/mL. The following applies: dose 25.0 µg/ml.

SMILES strings stand for the structures. Converted amounts (≈) assume the structure as drawn. The source made the active and inactive calls. No cut-off for these calls is given here.

Consider `COc1c(N2CCNC(C)C2)c(F)cc2c(=O)c(C(=O)O)cn(C3CC3)c12` (configuration not stated) [GATIFLOXACIN], for which the “log(activity)” value in the series on Pseudomonas aeruginosa [1] is 3.7.
For `CC1(C)S[C@@H]2[C@H](NC(=O)[C@H](N)c3ccc(O)cc3)C(=O)N2[C@H]1C(=O)O`, the fold change (FC) with Escherichia coli [2] stood at 16.
In general, MIC refers to the lowest concentration found to suppress growth. As a reminder, the inhibition is the relative decrease from the control value, in per cent. Consider `CN[C@H](CC(C)C)C(=O)N[C@H]1C(=O)N[C@@H](CC(N)=O)C(=O)N[C@H]2C(=O)N[C@H]3C(=O)N[C@H](C(=O)N[C@H](C(=O)O)c4cc(O)cc(O)c4-c4cc3ccc4O)[C@H](O)c3ccc(c(Cl)c3)Oc3cc2cc(c3O[C@@H]2O[C@H](CO)[C@@H](O)[C@H](O)[C@H]2O[C@H]2C[C@](C)(N)[C@H](O)[C@H](C)O2)Oc2ccc(cc2Cl)[C@H]1O` [VANCOMYCIN], for which the Activity with Staphylococcus aureus [3] is on record as 10.69%; with Staphylococcus aureus [8], 91.12%; in the series on Staphylococcus aureus [9], -0.81%; in the series on Staphylococcus aureus [11], 98.16%; in the series with Staphylococcus aureus [13] it was 49.44%. Further, the MIC is 1.56 µg/mL (≈ 1.08 µM) with Staphylococcus aureus [4], 1.56 µg/mL (≈ 1.08 µM) in the series on Staphylococcus aureus [7], 0.78 µg/mL (≈ 0.538 µM) in the series with Staphylococcus aureus [12] and over 50 µg/mL with Escherichia coli [14]. The inhibition at 0.39 µg/mL in the series on Staphylococcus aureus [5] was found to be 3.73%. Further, the inhibition at 6.25 µg/mL in the series on Staphylococcus aureus [6] was 99.6%. In addition, the inhibition at 0.78 µg/mL with Staphylococcus aureus [10] was found to be 30.3%.
Consider `CCn1cc(C(=O)O)c(=O)c2cc(F)c(N3CCNCC3)cc21`, for which the fold change (FC) in the series with Staphylococcus aureus [15] worked out at 1024.
As usually defined, the HC50 is the concentration giving 50% haemolysis. Read a high HC50 as weaker haemolysis. For `CCCCCCCCCN1CCCc2cc(OCC(=O)N[C@@H](CCCNC(=N)N)C(N)=O)ccc21`, the minimal inhibitory concentration (MIC) is 1.56 µg/mL (≈ 3.19 µM) in the series with Staphylococcus aureus [4]; 12.5 µg/mL (≈ 25.6 µM) in the series with Acinetobacter baumannii [16]; 1.56 µg/mL (≈ 3.19 µM) with Staphylococcus aureus [7]; 3.12 µg/mL (≈ 6.39 µM) in the series on Candida albicans [17]; 3.12 µg/mL (≈ 6.39 µM) with Candida albicans [18]; 3.12 µg/mL (≈ 6.39 µM) in the series with Klebsiella pneumoniae [19]. In addition, the MIC in the series on Klebsiella pneumoniae [20] was found to be 3.12 µg/mL (≈ 6.39 µM); in the series on Acinetobacter baumannii [21], 12.5 µg/mL (≈ 25.6 µM); in the series with Staphylococcus aureus [12] it was 1.56 µg/mL (≈ 3.19 µM); in the series on Pseudomonas aeruginosa [23], 6.25 µg/mL (≈ 12.8 µM); in the series with Escherichia coli [14], 3.12 µg/mL (≈ 6.39 µM). Moreover, the concentration for 50% haemolysis (HC50) at 1 h in series [22] was over 200 µg/mL.
Take `CC(C)=CCN1CCCc2cc(OCCCCCCCCCCCCNC(=N)N)ccc21`: the MIC is 0.78 µg/mL (≈ 1.76 µM) with Staphylococcus aureus [4]; 12.5 µg/mL (≈ 28.2 µM) in the series with Acinetobacter baumannii [16]; 0.78 µg/mL (≈ 1.76 µM) in the series with Staphylococcus aureus [7]; 0.78 µg/mL (≈ 1.76 µM) with Candida albicans [17]; 0.78 µg/mL (≈ 1.76 µM) with Candida albicans [18]; 3.12 µg/mL (≈ 7.06 µM) in the series on Klebsiella pneumoniae [19]. For the same compound, the MIC in the series with Klebsiella pneumoniae [20] was determined as 3.12 µg/mL (≈ 7.06 µM); in the series on Acinetobacter baumannii [21], 12.5 µg/mL (≈ 28.2 µM); with Staphylococcus aureus [12], 1.56 µg/mL (≈ 3.52 µM); in the series with Pseudomonas aeruginosa [23], 50 µg/mL (≈ 113 µM); in the series with Escherichia coli [14], 12.5 µg/mL (≈ 28.2 µM). This compound also returned an HC50 at 1 h in [22] of over 200 µg/mL.
As for `CCCCCCCN1CCCc2cc(OCCCCCCCCNC(=N)N)ccc21`, the MIC was 0.78 µg/mL (≈ 1.87 µM) in the series on Staphylococcus aureus [4]; 12.5 µg/mL (≈ 30 µM) with Acinetobacter baumannii [16]; 0.78 µg/mL (≈ 1.87 µM) in the series with Staphylococcus aureus [7]; 0.78 µg/mL (≈ 1.87 µM) with Candida albicans [17]; 0.39 µg/mL (≈ 0.936 µM) with Candida albicans [18]; 12.5 µg/mL (≈ 30 µM) in the series with Klebsiella pneumoniae [19]. The minimal inhibitory concentration (MIC) in the series on Klebsiella pneumoniae [20] was 12.5 µg/mL (≈ 30 µM); in the series on Acinetobacter baumannii [21], 25 µg/mL (≈ 60 µM); in the series with Staphylococcus aureus [12] it was 1.56 µg/mL (≈ 3.74 µM); with Pseudomonas aeruginosa [23], over 50 µg/mL; in the series with Escherichia coli [14] it was 3.12 µg/mL (≈ 7.5 µM). For the same compound, the result with Cell membrane was inactive. The same compound returned an HC50 at 1 h in [22] of over 200 µg/mL.
